Results on 37 compounds are retold here after patent EP4011367A1, “COMPOUNDS FOR USE IN THE TREATMENT OF COVID-19” (priority 2020, dated 2022).

Structures can show the parent of a compound that is named as a salt. Where two headings read alike, the source gives them in different places.

This assay addresses T1, SARS-CoV-2 3CL-Pro (Severe acute respiratory syndrome coronavirus 2, UniProt P0DTD1).
T1 construct: SARS-CoV-2 main protease (3CL-Pro), also termed M-Pro
The experiment in a line: biochemical. The following applies: for inhibition at 20 µM: read-out: 3CL-Pro Inhibition [%] Primary Screen (20 µM).

[1] abbreviates: dose response, 8 concentrations, absence of DTT, 60 min pre-incubation at 37 °C, 15 µM substrate, 60 nM enzyme, read-out: IC50.

As a reminder, the inhibition is the drop in the measured response relative to a control, in per cent. For orientation: IC50 means the concentration that inhibits the measured activity by half.

In the case of `CCC(=O)OCN1C(=O)C=CC1=O` [compound 36, Propionic acid 2,5-dioxo-2,5-dihydro-1H-pyrrol-1-ylmethyl ester], the inhibition at 20 µM amounted to 100%. In addition, the IC50 (read-out: IC50) amounted to 290 nM.

Take `CN(C)CCNc1nc2cc(O)ccc2c2c1C(=O)c1ccccc1-2` [compound 38, 6-[2-(Dimethylamino)ethylamino]-3-hydroxy-7H-indeno[2,1-c]quinolin-7-one dihydrochloride]: the inhibition at 20 µM was determined as 96.1%. The IC50 (read-out: IC50) stood at 2990 nM. Consider `CCCC[C@@H](C=O)NC(=O)[C@H](CC(C)C)NC(=O)OCc1ccccc1` [compound 39, N2-[(Benzyloxy)carbonyl]-N-[(2S)-1-oxohexan-2-yl]-L-leucinamide], for which the inhibition at 20 µM turned out to be 81%. Regarding `CC(C)[C@H](NC(=O)[C@H](CCC(=O)O)NC(=O)[C@H](CC(=O)O)NC(=O)OCc1ccccc1)C(=O)N[C@@H](CC(=O)O)C(=O)CF` [compound 40, N-(Benzyloxycarbonyl)-L-aspartyl-L-glutamyl-L-valyl-L-aspartylfluoromethane], it took 10 nM to reach half-maximal inhibition (IC50) and the inhibition at 20 µM was found to be 100%. On to `CC(=O)[O-].[Hg+][c]1ccccc1` [compound 42, acetyloxy(phenyl)mercury], for which the IC50 came to 10 nM. On to `O=C1C(Cl)=C(Cl)C(=O)C(Cl)=C1Cl` [compound 43, 2,3,5,6-tetrachlorocyclohexa-2,5-diene-1,4-dione], for which the inhibition at 20 µM stood at 101%. In addition, the half-inhibitory concentration (IC50) (read-out: IC50) was 20 nM. The like results for `Nc1nnc(Sc2ncc([N+](=O)[O-])s2)s1` [compound 44, 5-(5-Nitrothiazol-2-ylsulfanyl)-1,3,4-thiadiazol-2-amine] were, in that order, 99.9% and 30 nM. For `CN(C)C(=S)SSC(=S)N(C)C` [compound 45, dimethylcarbamothioylsulfanyl N ,N-dimethylcarbamodithioate], the inhibition at 20 µM stood at 99.9%. For the same compound, the IC50 (read-out: IC50) stood at 50 nM. With `CCN(CC)C(=S)SSC(=S)N(CC)CC` [compound 46, Tetraethylthioperoxydicarbonic diamide], the inhibition at 20 µM amounted to 99.7%. For the compound `[O-]n1ccccc1=S.[O-]n1ccccc1=S.[Zn+2]` [compound 47, Bis[1-hydroxy-2(1H)-pyiridinethionato]zinc], the “3CL-Pro Inhibition [%] Primary Screen (20 µM)” value was 99.7%. Also, the IC50 (read-out: IC50) worked out at 2460 nM. As for `On1ccccc1=S` [compound 48, 1-hydroxypyridine-2-thione], the IC50 came out at 50 nM and the inhibition at 20 µM came to 101%. Regarding `O=c1sn(-c2cccc3ccccc23)c(=O)n1Cc1ccccc1` [compound 49, 4-Benzyl-2-(1-naphthyl)-1,2,4-thiadiazolidine-3,5-dione], the inhibition at 20 µM was found to be 101%. Regarding `O=[N+]([O-])c1ccc(Sc2cccc[n+]2[O-])c2nonc12` [compound 50, 4-Nitro-1-[(1-oxidopyridin-2-yl)sulfanyl]-2,1,3-benzoxadiazole], the inhibition at 20 µM came out at 102%. Moreover, the IC50 (read-out: IC50) is 100 nM. With `CCN1CCN(C(c2ccc(C(F)(F)F)cc2)c2ccc3cccnc3c2O)CC1` (stereo not drawn) [compound 52, 7-[(4-Ethylpiperazin-1-yl)[4-(trifluoromethyl)phenyl]methyl]q uinolin-8-ol], the inhibition at 20 µM was 100%. The IC50 (read-out: IC50) turned out to be 150 nM.

With `Cc1ccc(-n2sc(=O)n(Cc3ccc(F)cc3)c2=O)cc1` [compound 53, 4-(4-Fluorobenzyl)-2-(4-methylphenyl)-1,2,4-thiadiazolidine-3,5-dione], the IC50 (read-out: IC50) is 150 nM.

As for `CCCCCCNC(=O)n1cc(F)c(=O)[nH]c1=O` [compound 55, 5-Fluoro-N-hexyl-2,4-dioxo-1,2,3,4-tetrahydropyrimidine-1-carboxamide], the inhibition at 20 µM came to 101%. As to `O=C(CCl)c1ccccc1` [compound 56, 2-chloro-1-phenylethanone], the inhibition at 20 µM is 99.9%. Also, the IC50 (read-out: IC50) stood at 190 nM.

Turning to `CCOC(=O)Cc1ccc(-c2ccccc2)cc1` [compound 57, [1,1'-Biphenyl]-4-acetic acid ethyl ester], the inhibition at 20 µM stood at 96.2%. The IC50 (read-out: IC50) was 200 nM. The like results for `O=C1C=CC(=O)C2=C1C1c3ccccc3C2c2ccccc21` [compound 61, Pentacyclo[6.6.6.0(2,7).0(9,14).0(15,20)]icosa-2(7),4,9,11,13,15,17,19-octaene-3,6-dione] were, in that order, 99.2% and 240 nM. For the compound `O=C(O)c1ccccc1-c1c2cc(Br)c(=O)cc-2oc2[c]([Hg][OH])c(O)c(Br)cc12` [compound 62, [2,7-dibromo-9-(2-carboxyphenyl)-3-hydroxy-6-oxoxanthen-4-yl]mercury;hydrate], the IC50 was found to be 240 nM. As to `CCOc1cc(C(Nc2cc(C)ccn2)c2ccc3cccnc3c2O)ccc1OC` (stereo not drawn) [compound 63, 7-[(3-Ethoxy-4-methoxyphenyl)[(4-methylpyridin-2-yl)amino]methyl]quinolin-8-ol], inhibition was half-maximal at 270 nM (IC50) and the inhibition at 20 µM was 98.9%.

Take `O=[N+]([O-])c1cnc(Sc2nnc(O)n2-c2ccc3c(c2)OCCO3)s1` [compound 64, 4-(2,3-Dihydro-1,4-benzodioxin-6-yl)-5-(5-nitrothiazol-2-ylsulfanyl)-4H-1,2,4-triazol-3-ol]: the inhibition at 20 µM was 96.4%. The IC50 (read-out: IC50) is 300 nM. Turning to `Oc1c(I)cc(I)c(O)c1I` [compound 65, 2,4,6-Triiodoresorcine], the inhibition at 20 µM was 99.7%. Further, the IC50 (read-out: IC50) stood at 330 nM.

Take `N#CSc1cc(SC#N)c(N)nc1N` [compound 66, 2,6-Diaminopyridine-3,5-diyl bis(thiocyanate)]: the IC50 (read-out: IC50) is 410 nM. Regarding `O=[N+]([O-])C(Br)(CO)CO` [compound 67, 2-bromo-2-nitropropane-1,3-diol], the inhibition at 20 µM was found to be 99.9%. For the setting “read-out: IC50”, the IC50 was found to be 420 nM.

`Oc1cc(CNC(=S)C=Cc2cc(O)c(O)c(Br)c2)cc(O)c1O` [compound 68, 3-(3-Bromo-4,5-dihydroxyphenyl)-N-(3,4,5-trihydroxybenzyl)-2-propenethioamide]: the inhibition at 20 µM came to 79.4%. The IC50 under setting [1] was 480 nM. For the compound `Oc1cc2c(cc1C(c1ccc(C(F)(F)F)cc1)N1CCOCC1)OCO2` (stereo not drawn) [compound 70, 6-[morpholin-4-yl-[4-(trifluoromethyl)phenyl]methyl]-1,3-benzodioxol-5-ol], the inhibition at 20 µM was found to be 81.4%. Where the note is “read-out: IC50”, the half-inhibitory concentration (IC50) stood at 540 nM.

For the compound `CC(C)N(CCC(=O)c1ccc2ccccc2c1)Cc1ccccc1` [compound 71, 3-[benzyl(propan-2-yl)amino]-1-naphthalen-2-ylpropan-1-one], the inhibition at 20 µM turned out to be 75.7%. Further, the IC50 (read-out: IC50) was 580 nM. Take `COc1cccc2c1C(=O)c1c(O)c3c(c(O)c1C2=O)C[C@@](O)(C(CO)=NNC(=O)CCCCCN1C(=O)C=CC1=O)C[C@@H]3O[C@H]1C[C@H](N)[C@H](O)[C@H](C)O1` [compound 72, N'-[1-[4(S)-(3-Amino-2,3,6-trideoxy-alpha-L-lyxo-hexopyranosyloxy)-2(S),5,12-trihydroxy-7-methoxy-6,11-dioxo-1,2,3,4,6,11-hexahydronaphthacen-2-yl]-2-hydroxyethylidene]-6-(2,5-dioxo-2,5-dihydro-1H-pyrrol-1-yl)hexanohydrazide hydrochloride]: the IC50 was found to be 580 nM and the inhibition at 20 µM amounted to 101%. Regarding `CC[C@H](CO)Nc1nc(NCc2ccc(-c3ccccn3)cc2)c2ncn(C(C)C)c2n1` [compound 73, (2R)-2-[[9-propan-2-yl-6-[(4-pyridin-2-ylphenyl)methylamino]purin-2-yl]amino]butan-1-ol], the inhibition at 20 µM turned out to be 99.5%. The IC50 (read-out: IC50) came out at 840 nM. In turn, `C=CC1=C(C)C2=Cc3c(C=C)c(C)c4[n]3[Fe]([Cl])[n]3c(c(C)c(CCC(=O)O)c3=CC3=NC(=C4)C(C)=C3CCC(=O)O)=CC1=N2` [compound 74, - (SP-5-13)-Chloro[3,8,13,17-tetramethyl-7,12-divinyl-21H,23H-porphine-2,18-dipropanoato(4-)-kappa N21,kappaN22,kappaN23,kappaN24]dihydrogenoferrate(2-)] gave an IC50 of 880 nM. As for `CN(C)C(=S)SC(=S)N(C)C` [compound 75, dimethylcarbamothioyl N,N-dimethylcarbamodithioate], the IC50 (read-out: IC50) worked out at 940 nM. Regarding `CN=c1nc(-c2ccccc2)n(-c2ccccc2)s1` [compound 76, N-(2,3-Diphenyl-2,5-dihydro-1,2,4-thiadiazol-5-ylidene)-N-methylamine], the inhibition at 20 µM worked out at 99.8%. Under setting [1], the IC50 came out at 980 nM.

In the case of `COc1cc(C(=S)N2CCOCC2)ccc1O` [compound 79, (4-hydroxy-3-methoxyphenyl)-orpholin-4-ylmethanethione], the inhibition at 20 µM was found to be 100%. Moreover, under “read-out: IC50”, the IC50 was 1320 nM.

As to `CNC(=O)ON(C(C)=O)C(=O)NC` [compound 80, N-[(Methylamino)carbonyl]-N-[[(methylamino)carbonyl]oxy]ace tamide], the inhibition at 20 µM was 96.4%. Moreover, for the setting “read-out: IC50”, the IC50 was 1330 nM. On to `O=C(O)c1cc(O)c2c(c1)[C@H]([C@H]1c3cc(C(=O)O)cc(O)c3C(=O)c3c(O[C@@H]4O[C@H](CO)[C@@H](O)[C@H](O)[C@H]4O)cccc31)c1cccc(O[C@@H]3O[C@H](CO)[C@@H](O)[C@H](O)[C@H]3O)c1C2=O` [compound 81, (9R)-9-[(9R)-2-carboxy-4-hydroxy-10-oxo-5-[(2S,3R,4S,5S,6R)-3,4,5-trihydroxy-6-(hydroxymethyl)oxan-2-yl]oxy-9H-anthracen-9-yl]-4-hydroxy-10-oxo-5-[(2S,3R,4S,5S,6R)-3,4,5-trihydroxy-6-(hydroxymethyl)oxan-2-yl]oxy-9H-anthracene-2-carboxylic acid], for which the inhibition at 20 µM is 103%. In the case of `O=C(O)C(S)C(S)C(=O)O` (stereo not drawn) [compound 82, 2,3-bis(sulfanyl)butanedioic acid], 1720 nM corresponded to half-maximal inhibition (IC50) and the inhibition at 20 µM amounted to 98.9%.
